Results as given in PubChem BioAssay (NCI).
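Briefly, cells in 96-well plates were exposed to five compound concentrations for 48 h, and endpoints were estimated by linear interpolation. At the GI50, growth is halved. At the TGI there is no net growth.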

What was measured:
Experiment in all cases: NCI tumour cell line growth inhibition, 48 h
[1] = tested on: SNB-19 CNS
[2] = tested on: NCI-H23 lung
[3] = tested on: HS 578T breast
[4] = tested on: CAKI-1 renal
[5] = tested on: T-47D breast
[6] = tested on: SK-MEL-28 melanoma
[7] = tested on: DU-145 prostate
[8] = tested on: OVCAR-5 ovarian
[9] = tested on: NCI-H522 lung
[10] = tested on: MDA-MB-435
[11] = tested on: SF-268 CNS
[12] = tested on: SK-MEL-2 melanoma
[13] = tested on: HCT-116 colon
[14] = tested on: NCI-H460 lung
[15] = tested on: SK-MEL-5 melanoma
[16] = tested on: MDA-MB-468 breast
[17] = tested on: COLO 205 colon
[18] = tested on: PC-3 prostate
[19] = tested on: OVCAR-8 ovarian
[20] = tested on: HCC-2998 colon
[21] = tested on: LOX IMVI melanoma
[22] = tested on: NCI-H226 lung
[23] = tested on: 786-0 renal
[24] = tested on: OVCAR-3 ovarian
[25] = tested on: HT29 colon
[26] = tested on: SR leukemia
[27] = tested on: TK-10 renal
[28] = tested on: KM12 colon
[29] = tested on: BT-549 breast
[30] = tested on: UO-31 renal
[31] = tested on: SK-OV-3 ovarian
[32] = tested on: M14 melanoma
[33] = tested on: A498 renal
[34] = tested on: U251 CNS
[35] = tested on: MCF7 breast
[36] = tested on: OVCAR-4 ovarian
[37] = tested on: RPMI-8226 leukemia
[38] = tested on: SN12C renal
[39] = tested on: NCI/ADR-RES ovarian
[40] = tested on: SNB-75 CNS
[41] = tested on: HOP-92 NSCLC
[42] = tested on: HL-60(TB) leukemia
[43] = tested on: SF-295 CNS
[44] = tested on: HOP-62 NSCLC
[45] = tested on: IGROV1 ovarian
[46] = tested on: MOLT-4 leukemia
[47] = tested on: UACC-257 melanoma
[48] = tested on: RXF 393 renal
[49] = tested on: MDA-MB-231 breast
[50] = tested on: UACC-62 melanoma
[51] = tested on: MALME-3M melanoma
[52] = tested on: ACHN renal
[53] = tested on: HCT-15 colon
[54] = tested on: SF-539 CNS
[55] = tested on: K-562 leukemia
[56] = tested on: CCRF-CEM leukemia
[57] = tested on: SW-620 colon
[58] = tested on: A549 NSCLC
[59] = tested on: EKVX NSCLC

Q: What does the source list for `C=CC(=O)Nc1ccc(C(=O)/C=C/c2ccc(N(C)CCF)cc2)c(O)c1`?
A: GI50 [1]: 3.67 µM; TGI [1]: 15 µM; GI50 [2]: 1.68 µM; TGI [2]: 3.99 µM; GI50 [3]: 2.97 µM; TGI [3]: 17.3 µM; GI50 [4]: 1.87 µM; TGI [4]: 4.14 µM; GI50 [5]: 2.47 µM; TGI [5]: 10 µM; GI50 [6]: 1.58 µM; TGI [6]: 3.14 µM; GI50 [7]: 2.52 µM; TGI [7]: 10.3 µM; GI50 [8]: 1.98 µM; TGI [8]: 4.3 µM; GI50 [9]: 1.42 µM; TGI [9]: 2.95 µM; GI50 [10]: 1.72 µM; TGI [10]: 4.6 µM; GI50 [11]: 2.47 µM; TGI [11]: 8.58 µM; GI50 [12]: 2.53 µM; TGI [12]: 7.88 µM; GI50 [13]: 1.5 µM; TGI [13]: 3 µM; GI50 [14]: 1.87 µM; TGI [14]: 5.46 µM; GI50 [15]: 2.14 µM; TGI [15]: 6.49 µM; GI50 [16]: 1.63 µM; TGI [16]: 4.28 µM; GI50 [17]: 1.98 µM; TGI [17]: 4.86 µM; GI50 [18]: 2.22 µM; TGI [18]: 13.6 µM; GI50 [19]: 1.51 µM; TGI [19]: 3.86 µM; GI50 [20]: 1.78 µM; TGI [20]: 3.64 µM; GI50 [21]: 1.33 µM; TGI [21]: 2.69 µM; GI50 [22]: 1.92 µM; TGI [22]: 5.32 µM; GI50 [23]: 1.65 µM; TGI [23]: 3.57 µM; GI50 [24]: 1.62 µM; TGI [24]: 4.53 µM; GI50 [25]: 1.57 µM; TGI [25]: 3.31 µM; GI50 [26]: 0.586 µM; TGI [26]: 6.2 µM; GI50 [27]: 3.12 µM; TGI [27]: 8.4 µM; GI50 [28]: 2.1 µM; TGI [28]: 5.25 µM; GI50 [29]: 1.55 µM; TGI [29]: 3.78 µM; GI50 [30]: 1.28 µM; TGI [30]: 3.74 µM; GI50 [31]: 6.47 µM; TGI [31]: 21.4 µM; GI50 [32]: 1.7 µM; TGI [32]: 4.19 µM; GI50 [33]: 3.52 µM; TGI [33]: 17.7 µM; GI50 [34]: 1.88 µM; TGI [34]: 5.17 µM; GI50 [35]: 1.89 µM; TGI [35]: 10.7 µM; GI50 [36]: 2.95 µM; TGI [36]: 14 µM; GI50 [37]: 1.6 µM; TGI [37]: 5.92 µM; GI50 [38]: 1.86 µM; TGI [38]: 5.2 µM; GI50 [39]: 1.55 µM; TGI [39]: 4.4 µM; GI50 [40]: 2.1 µM; TGI [40]: 9.84 µM; GI50 [41]: 0.527 µM; TGI [41]: 4 µM; GI50 [42]: 1.77 µM; TGI [42]: 5.3 µM; GI50 [43]: 4.49 µM; TGI [43]: 18.9 µM; GI50 [44]: 3.26 µM; TGI [44]: 13 µM; GI50 [45]: 2 µM; TGI [45]: 6 µM; GI50 [46]: 1.99 µM; TGI [46]: 6.85 µM; GI50 [47]: 2.53 µM; TGI [47]: 10.9 µM; GI50 [48]: 1.52 µM; TGI [48]: 3.09 µM; GI50 [49]: 2.19 µM; TGI [49]: 5.58 µM; GI50 [50]: 1.3 µM; TGI [50]: 2.77 µM; GI50 [51]: 1.43 µM; TGI [51]: 3.46 µM; GI50 [52]: 1.66 µM; TGI [52]: 3.45 µM; GI50 [53]: 1.41 µM; TGI [53]: 3.01 µM; GI50 [54]: 1.67 µM; TGI [54]: 3.5 µM; GI50 [55]: 2.27 µM; TGI [55]: 24 µM; GI50 [56]: 2.15 µM; TGI [56]: 10.5 µM; GI50 [57]: 1.52 µM; TGI [57]: 3.36 µM; GI50 [58]: 2.62 µM; TGI [58]: 12.7 µM; GI50 [59]: 3.37 µM; TGI [59]: 13.8 µM
